One data set deals with vanA and vanB genes. In words: Non-isotopic CPT-EIA VRE screen of enterococcal isolates. Particulars: threshold 0.14 OD650; 27 isolates, five operators. An excerpt: This following example describes a rapid single probe non-isotopic CPT assay for screening dual VRE genes (vanA and vanB) from Enterococcal isolates. The non-isotopic VRE assay, which combines CPT with an enzyme immunoassay (CPT-EIA), is schematically illustrated in FIG. 2. Because of the lack of homology between the vanA and vanB genes, it was not possible to find a common sequence that was suitable for a perfectly complementary CPT chimeric probe. It was necessary to design a probe that had two mismatches to vanA in the 5′ DNA arm and two mismatches to vanB in the 3′ DNA arm. In spite of the mismatches, the probe worked well to discriminate vanA and vanB from vanC and VSE isolates.
The dual detection single chimeric probe specific for detecting vanA and vanB genes are synthesized, fluoresceinated and biotinylated as described in Example 1. The purified thermostable RNase H is prepared as described in Example 3.
The sources of Enterococcal isolates and growth conditions are as described in Example 2. Lysis
The cells are lysed by placing a 1-μL loopful of culture growth in 50 μL of Lysis Reagent. […]
After cycling, 3 drops (˜100 μL) of Cycle Stop Reagent containing sheep polyclonal antifluorescein-horseradish peroxidase (HRP) conjugate and 0.16% SDS in Peroxidase Stabilizing Buffer (DAKO, Mississauga, ON) is added to the cycling reaction. […] The plate is read with a Vmax plate reader at OD650. […]

Data set [1] deals with VanA phenotype enterococci. The note with it: inducible resistance; cited from earlier work.

Regarding “5′-CAT GAT GTG TCG GTa aaa TCT GCA ATA GAG A-3′ (DNA CATGATGTGTCGGTAAAATCTGCAATAGAGA; scissile link, further chemistry not given here) [vanB110-m3]”, in the data set on vanA and vanB genes, the sensitivity turned out to be 98.7% and the specificity came out at 100%.
For the compound `CN[C@H](CC(C)C)C(=O)N[C@H]1C(=O)N[C@@H](CC(N)=O)C(=O)N[C@H]2C(=O)N[C@H]3C(=O)N[C@H](C(=O)N[C@H](C(=O)O)c4cc(O)cc(O)c4-c4cc3ccc4O)[C@H](O)c3ccc(c(Cl)c3)Oc3cc2cc(c3O[C@@H]2O[C@H](CO)[C@@H](O)[C@H](O)[C@H]2O[C@H]2C[C@](C)(N)[C@H](O)[C@H](C)O2)Oc2ccc(cc2Cl)[C@H]1O` [vancomycin], in data set [1], the MIC (as a rule, the lowest concentration that inhibits growth of the organism) is at least 64 µg/mL.
Regarding teicoplanin, the minimum inhibitory concentration (MIC) in data set [1] was at least 16 µg/mL.

These data come from patent US7122314B2, “Methods for detecting vancomycin-resistant microorganisms and compositions therefor” (ID Biomedical Corporation, priority 2002, dated 2006).
